For this assay, the target named is Cholinesterase (Equus caballus, UniProt P81908). In words: Inhibition of horse serum BChE by Ellman's reaction.

“And” between values parts separate entries of the source, which are not always exact repeats. Identical values can stand only once.

Sequence of Cholinesterase (P81908 whole entry): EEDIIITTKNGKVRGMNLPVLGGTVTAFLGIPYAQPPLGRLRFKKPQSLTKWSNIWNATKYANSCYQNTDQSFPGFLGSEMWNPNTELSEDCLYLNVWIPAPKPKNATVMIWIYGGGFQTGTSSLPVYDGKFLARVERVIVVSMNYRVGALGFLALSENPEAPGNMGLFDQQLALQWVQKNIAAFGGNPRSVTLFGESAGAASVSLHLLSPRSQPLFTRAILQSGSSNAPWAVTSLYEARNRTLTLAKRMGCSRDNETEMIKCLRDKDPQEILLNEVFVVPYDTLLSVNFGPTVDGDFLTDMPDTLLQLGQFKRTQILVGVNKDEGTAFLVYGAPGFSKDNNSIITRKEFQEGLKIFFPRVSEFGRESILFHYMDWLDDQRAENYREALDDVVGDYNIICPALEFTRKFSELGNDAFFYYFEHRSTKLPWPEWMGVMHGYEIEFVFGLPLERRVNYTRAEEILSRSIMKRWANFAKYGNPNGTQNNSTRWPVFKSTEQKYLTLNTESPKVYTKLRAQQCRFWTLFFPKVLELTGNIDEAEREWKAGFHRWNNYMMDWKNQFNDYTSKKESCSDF

`C[n+]1ccc2c(c1)[nH]c1ccccc12` displayed an IC50 of 11.2 µM.

`C[n+]1ccc2c(c1)[nH]c1ccc(Cl)cc12` [NOSTOCARBOLINE]: the IC50 is 19.4 µM and 13.2 µM.

Values taken from ChEMBL document CHEMBL1151286, “Nostocarboline: isolation and synthesis of a new cholinesterase inhibitor from Nostoc 78-12A” (J Nat Prod, 2005).
